Values joined by “and” are separate entries in the source; they are usually repeats but may differ in a detail not shown here. Equal values may be shown once. Read-outs that look alike come from different tables or passages of the source.
Columns and labels:
[1] = tested on: Schaffer collateral-CA1 synapse; assay: Muscarinic long-term depression; settings: 10 minutes, rat hippocampal slices
[2] = tested on: striatal medium spiny neurons (MSNs); set-up: species or system rats
[3] = tested on: mPFC layer V pyramidal neurons; assay: Whole-cell voltage clamp recordings of sEPSCs in mPFC layer V pyramidal neurons; set-up: species or system mice; settings: mouse mPFC slices; for effect on sEPSC frequency / interevent interval (IEI): 100 μM
[4] = target: T1, human M1 receptors (Homo sapiens, UniProt P11229); assay: ERK1/2 phosphorylation; type: cell-based; settings: hM1 CHO cells, 5 min agonist; for EC50: read-out: ERK EC50
T1 sequence (P11229 1-460): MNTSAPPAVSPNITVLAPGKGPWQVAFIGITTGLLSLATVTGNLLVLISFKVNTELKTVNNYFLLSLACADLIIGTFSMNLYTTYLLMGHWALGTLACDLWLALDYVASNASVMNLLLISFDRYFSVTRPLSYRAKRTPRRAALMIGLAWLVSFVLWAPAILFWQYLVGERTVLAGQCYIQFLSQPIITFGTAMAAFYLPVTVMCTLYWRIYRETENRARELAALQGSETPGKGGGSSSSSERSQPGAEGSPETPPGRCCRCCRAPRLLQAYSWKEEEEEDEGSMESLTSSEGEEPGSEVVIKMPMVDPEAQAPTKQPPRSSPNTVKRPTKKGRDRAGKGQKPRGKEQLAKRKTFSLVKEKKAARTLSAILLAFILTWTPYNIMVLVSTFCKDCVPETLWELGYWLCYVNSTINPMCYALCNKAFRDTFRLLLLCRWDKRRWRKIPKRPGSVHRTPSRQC

[5] = target: T2, hM1 receptors (Homo sapiens, UniProt P11229); assay: β-arrestin recruitment, PathHunter Express hM1 CHO cells; type: cell-based
T2 sequence (P11229 1-460): T1 sequence (P11229 1-460)

[6] = target: T3, human M1 mAChR (Homo sapiens, UniProt P11229); assay: ERK1/2 phosphorylation in TET-inducible hM1 TREx CHO cells; type: cell-based
T3 sequence (P11229 1-460): T1 sequence (P11229 1-460)

[7] = target: T3, human M1 mAChR; assay: Confocal imaging of β-arrestin2-YFP recruitment in hM1 TREx CHO cells; type: cell-based; settings: agonist 100 μM
[8] = target: T4, M1 muscarinic receptors (Homo sapiens, UniProt P11229); assay: GPCRProfiler calcium assay, agonist mode, M1; type: cell-based; settings: 10 μM compound
T4 sequence (P11229 1-460): T1 sequence (P11229 1-460)

[9] = tested on: 168 G protein coupled receptors (GPCRs); assay: GPCRProfiler calcium assay, agonist mode, other GPCRs; type: cell-based; settings: 10 μM compound
[10] = target: T5, D4 dopamine receptors (Homo sapiens, UniProt P21917); assay: GPCRProfiler calcium assay, D4; type: cell-based; settings: 10 μM compound
T5 sequence (P21917 1-419): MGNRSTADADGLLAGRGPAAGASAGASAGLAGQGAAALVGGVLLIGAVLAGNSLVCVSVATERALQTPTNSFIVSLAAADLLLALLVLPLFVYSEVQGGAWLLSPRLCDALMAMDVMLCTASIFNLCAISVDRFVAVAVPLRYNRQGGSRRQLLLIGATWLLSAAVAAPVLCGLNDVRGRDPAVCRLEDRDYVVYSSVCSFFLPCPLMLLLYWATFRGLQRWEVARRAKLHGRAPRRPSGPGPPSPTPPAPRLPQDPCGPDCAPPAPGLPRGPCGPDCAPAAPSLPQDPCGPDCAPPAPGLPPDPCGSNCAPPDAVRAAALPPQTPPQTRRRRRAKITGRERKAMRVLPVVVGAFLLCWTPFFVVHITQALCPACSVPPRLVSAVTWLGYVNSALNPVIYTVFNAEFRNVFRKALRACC

[11] = target: β3-adrenergic receptors (Homo sapiens, UniProt P13945); assay: GPCRProfiler calcium assay, β3; type: cell-based; settings: 10 μM compound
β3-adrenergic receptors, sequence (P13945 whole entry): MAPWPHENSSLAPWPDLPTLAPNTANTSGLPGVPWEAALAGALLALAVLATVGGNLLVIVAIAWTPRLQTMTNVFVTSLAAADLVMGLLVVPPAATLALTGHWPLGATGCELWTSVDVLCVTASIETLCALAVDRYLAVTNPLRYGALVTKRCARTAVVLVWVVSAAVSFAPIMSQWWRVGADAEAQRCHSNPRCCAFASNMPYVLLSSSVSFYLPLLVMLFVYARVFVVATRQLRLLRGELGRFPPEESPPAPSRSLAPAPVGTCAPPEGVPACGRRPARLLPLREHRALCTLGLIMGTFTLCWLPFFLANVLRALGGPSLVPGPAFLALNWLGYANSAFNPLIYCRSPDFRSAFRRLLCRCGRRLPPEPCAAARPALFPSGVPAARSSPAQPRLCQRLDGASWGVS

[12] = tested on: Schaffer collateral-CA1 synapse in rat hippocampus; settings: 500 nM bath applied 10 minutes prior to threshold TBS; rat hippocampal slices
[13] = tested on: Sprague-Dawley rats; assay: Morris water maze; type: in vivo, rat
[14] = tested on: Sprague-Dawley rats; assay: Acquisition of contextual fear conditioning; type: in vivo, rat; settings: vs vehicle
[15] = tested on: rats; assay: Amphetamine-induced hyperlocomotion; type: in vivo, rat; settings: 3–56.6 mg/kg i.p. 30 minutes prior to amphetamine
[16] = target: T1, human M1 receptors; assay: Calcium mobilization in hM1 CHO cells; settings: for Ca release % CCh max: Emax normalized to maximum CCh response; for EC50: read-out: Ca release EC50
[17] = target: T3, human M1 mAChR; assay: Calcium mobilization in TET-inducible hM1 TREx CHO cells
[18] = tested on: D3 receptors; settings: ref Lebois et al., 2011; cited from earlier work
[19] = read-out: ERK EC50, TET 50 ng/mL
[20] = read-out: ERK EC50, TET 1 μg/mL
[21] = i.p., treated groups vs controls
[22] = read-out: Ca EC50, TET 10 ng/mL
[23] = read-out: Ca EC50, TET 25 ng/mL
[24] = read-out: Ca EC50, TET 50 ng/mL

C[N+](C)(C)CCOC(N)=O [CCh, carbachol, reference compound]
induction of LTD of fEPSP slope ([1]; 30 μM): without effect
induction of LTD of fEPSP slope ([1]; 50 μM): induced robust LTD
excitatory effect in MSNs (number of spikes per depolarization pulse) ([2]; 10 μM): robust excitatory effect
effect on sEPSC frequency / interevent interval (IEI) [3]: robust increase in sEPSC frequency
concentration required for induction of the PFC response [3]: > 50 µM

CCOC(=O)N1CCC(NCCNC(=O)c2ccccc2C)CC1.Cl [VU0357017]
ERK % CCh max [4]: 37.9 % CCh max
EC50 [4]: 37 µM
effect on β-arrestin recruitment [5]: little or no effect on β-arrestin recruitment
ERK % CCh max ([6]; TET 0 ng/mL): 27.4 % CCh max
ERK % CCh max ([6]; TET 25 ng/mL): 50.3 % CCh max
ERK % CCh max ([6]; TET 50 ng/mL): 45.9 % CCh max
ERK % CCh max ([6]; TET 1 μg/mL): 30.3 % CCh max
EC50 [6, 19]: 35.9 µM
EC50 [6, 20]: 3.17 µM
β-arrestin2-YFP recruitment (confocal) ([7]; TET 50 ng/mL overnight): no effect on β-arrestin recruitment
β-arrestin2-YFP recruitment (confocal) ([7]; TET 1 μg/mL overnight): did not induce β-arrestin2 recruitment
agonist Ca response at M1 [8]: induced a significant response
agonist activity at other receptor subtypes [9]: little activity
agonist Ca response at D4 [10]: very small responses
agonist Ca response at β3 [11]: very small responses
potentiation of threshold TBS LTP (fEPSP slope) [12]: significant potentiation of fEPSP slope
induction of LTD of fEPSP slope ([1]; 30 μM): did not induce a significant LTD response
excitatory effect in MSNs (number of spikes per depolarization pulse) ([2]; 30 μM): very weak efficacy in inducing excitatory effects
effect on sEPSC frequency / interevent interval (IEI) [3]: no significant effect on IEI
overnight memory retention [13, 21]: did not differ from controls
platform crossing on the probe trial [13, 21]: did not differ from controls
swim path distance from days 4 to 5 [13, 21]: did not differ from controls
acquisition of contextual fear (duration of freezing) ([14]; 0.1, 0.3, 0.56, 1, and 3 mg/kg i.p. 30 min before conditioning): robust improvements in acquisition of contextual fear
reversal of amphetamine-induced hyperlocomotion [15]: fails to reverse hyperlocomotion
Ca release % CCh max [16]: 41.7 ± 2.37 % CCh max and 41.7 % CCh max
EC50 [16]: 1.6 µM
Ca % CCh max ([17]; TET 0 ng/mL): 8.24 % CCh max
Ca % CCh max ([17]; TET 10 ng/mL): 7.21 % CCh max
Ca % CCh max ([17]; TET 25 ng/mL): 24.5 % CCh max
Ca % CCh max ([17]; TET 50 ng/mL): 60.4 % CCh max
Ca % CCh max ([17]; TET 1 μg/mL): 75.3 % CCh max
EC50 [17, 22]: 16 µM
EC50 [17, 23]: 16 µM
EC50 [17, 24]: 1.6 µM
EC50 ([17]; read-out: Ca EC50, TET 1 μg/mL): 0.69 µM

CCOC(=O)N1CCC(N2CCC[C@@H](NC(=O)c3ccccc3C)C2)CC1 [VU0364572]
ERK % CCh max [4]: 90.5 % CCh max
EC50 [4]: 10 µM
effect on β-arrestin recruitment [5]: little or no effect on β-arrestin recruitment
ERK % CCh max ([6]; TET 0 ng/mL): 56.4 % CCh max
ERK % CCh max ([6]; TET 25 ng/mL): 50.6 % CCh max
ERK % CCh max ([6]; TET 50 ng/mL): 52.6 % CCh max
ERK % CCh max ([6]; TET 1 μg/mL): 49.3 % CCh max
EC50 ([6]; read-out: ERK EC50, TET 0 ng/mL): 108 µM
EC50 ([6]; read-out: ERK EC50, TET 25 ng/mL): 9.88 µM
EC50 [6, 19]: 9.44 µM
EC50 [6, 20]: 3.3 µM
β-arrestin2-YFP recruitment (confocal) ([7]; TET 50 ng/mL overnight): no effect on β-arrestin recruitment
β-arrestin2-YFP recruitment (confocal) ([7]; TET 1 μg/mL overnight): did induce responses
potentiation of threshold TBS LTP (fEPSP slope) [12]: significant potentiation of fEPSP slope
induction of LTD of fEPSP slope ([1]; 30 μM): induced robust LTD
excitatory effect in MSNs (number of spikes per depolarization pulse) ([2]; 30 μM): relatively weak excitatory effect
effect on sEPSC frequency / interevent interval (IEI) [3]: no significant effect on IEI
swim distance, day 5 ([13]; 0.1 mg/kg and 10 mg/kg i.p. 30 min prior to first trial, vs vehicle): decreased swim distance
overnight memory retention day 4 to day 5 ([13]; 0.1 mg/kg i.p., vs vehicle): enhanced overnight memory retention
platform crossings during first 30 seconds of probe trial ([13]; 0.1 mg/kg i.p., vs vehicle): increased platform crossings
swim distance, day 4 ([13]; 0.1 mg/kg i.p., vs vehicle): enhancement
acquisition of contextual fear (freezing) ([14]; 0.056, 0.3, and 0.56 mg/kg i.p. 30 min before conditioning): improved acquisition of contextual fear learning
reversal of amphetamine-induced hyperlocomotion [15]: fails to reverse this response
concentration required to induce effects at D3 receptors [18]: greater than 10 μM
inhibition of binding at D3 receptors [18]: 10%
Ca release % CCh max [16]: 70.8 % CCh max
EC50 [16]: 0.89 µM
Ca % CCh max ([17]; TET 0 ng/mL): 44.2 % CCh max
Ca % CCh max ([17]; TET 10 ng/mL): 39.9 % CCh max
Ca % CCh max ([17]; TET 25 ng/mL): 68.1 % CCh max
Ca % CCh max ([17]; TET 50 ng/mL): 78.1 % CCh max
Ca % CCh max ([17]; TET 1 μg/mL): 86.2 % CCh max
EC50 ([17]; read-out: Ca EC50, TET 0 ng/mL): 30.5 µM
EC50 [17, 22]: 146 µM
EC50 [17, 23]: 2.3 µM
EC50 [17, 24]: 1 µM
EC50 ([17]; read-out: Ca EC50, TET 1 μg/mL): 0.5 µM

From paper PMC3398407 (The Journal of Neuroscience, 2012)
